Test results taken from PMC10126514, “The interaction of peptide inhibitors and Aβ protein: Binding mode analysis, inhibition of the formation of Aβ aggregates, and then exert neuroprotective effects” (Frontiers in Aging Neuroscience, 2023).
“Also recorded” adds a separate entry of the source. Residues, ends and D or L forms follow the SMILES beside them.

What was measured:
Aβ1–42 = biological target: T1, Aβ1–42 (Homo sapiens, UniProt P05067); test: SPR affinity of peptide and Aβ1–42; format: binding; conditions: for Binding ability ranking by KD / Binding phase of SPR kinetic curve / Dissociation phase of SPR kinetic curve: SPR, qualitative
T1 construct: purchased GL Biochem Ltd. (Shanghai)
T1 sequence (P05067 672-713 limits assumed): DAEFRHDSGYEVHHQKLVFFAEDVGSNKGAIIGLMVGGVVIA
Description: Surface Plasmon Resonance (SPR) is a sensitive surface analysis technique that detects changes in dielectric constant caused by molecules adsorbed on heavy metal films. In this study, the 1-(3-Dimethylaminopropyl)-3-ethylcarbodiimide hydrochloride (EDC) and N-Hydroxy succinimide (NHS) in the coupling kit were, respectively, dissolved in 1 mL of activation buffer, divided into 10 parts, 100 μL/part, and stored at −20°C for later use. Before the experiment, first install the CM5 chip in the machine and wash it with HBS-EP buffer 3 times. […] After the experiment is over, use the Evaluation software to analyze the results, and use Flow Cell2 to subtract the background signal of channel 1 as the experimental result. The 1:1 binding method is used for fitting calculation and analysis of affinity parameters: binding rate constant ka (1/Ms), dissociation rate constant kd (1/s) and equilibrium dissociation constant KD (M), KD = kd/ ka, the smaller the KD value, the stronger the affinity.

PC12 cells [1] = format: cell-based, Rat
Description: Pipette the cultured cells in a cell culture flask repeatedly to make them evenly distributed. Use a pipete to pipete 10 μL of cell suspension and transfer to a cell counting plate for counting. Count under a microscope to calculate the number of living cells distributed in a large square composed of 16 squares on the cytometer. Cell density (pcs / mL) = (sum of cell count/4) × 10^4 Calculate the cell concentration, repeat counting 2–3 times for each sample (the value should not be too different each time, otherwise the operation should be repeated). If there are less than 5 cells in each large square, you need to re-centrifuge to adjust the cell concentration.
Use CCK-8 kit to detect cell viability, reflecting the cytotoxicity of peptide inhibitors themselves. The counted PC12 cells were plated at 100 μL/well (8 × 10^4 cells/well). After put the 96-well plate at 37°C for 12 h, discard the medium, add 100 μL of medium containing different concentrations of peptide inhibitors to each well, and continue to culture 24 h. […] The wells with DMEM medium solution containing no peptide inhibitors but containing cells were used as the control group.
Cell Viability(%)=ODadministration group−[…]ODcontrol group−ODblank group×100%

Aβ1–42 aggregation = test: ThT fluorescence, inhibition of Aβ1–42 aggregation; format: biochemical, Human; conditions: for ThT fluorescence intensity vs Aβ group: PBS, ex 440/em 480 nm
Description: ThT is a chemical fluorescent dye. […] Based on this fluorescence phenomenon, ThT is used as a kind of fluorescent indicator to detect the degree of aggregation of Aβ.
Take about 10 μL of the sample, dilute it 20 times with ThT solution, and read the fluorescence intensity value with a microplate reader, 440 nm is the excitation wavelength, and 480 nm is the emission wavelength, and the bandwidth is 5 nm. […] The sample was repeated five times and the average value was taken.

PC12 cells [2] = conditions: CCK-8, co-incubated with Aβ1–42 72 h
Description: Rat adrenal pheochromocytoma (PC12) cells were donated by Zhengzhou University School of Basic Medicine (#CRL-1721; RRID: CVCL-0481) in DMEM containing 10% fetal bovine serum, 1% penicillin and 1% streptomycin, culture in a cell incubator with 5% CO2 and 37°C, and passage once every 3 days.
Add 10 μL of CCK-8 solution to each well and continue to incubate for 2 h. Add 10 μL of CCK-8 solution to each well and continue to incubate for 2 h. The wells with normal DMEM medium and cell solution were used as the control group. The wells with 100 μL DMEM medium and 10 μL CCK-8 solution but no cells were used as the blank control, and the absorbance was measured at 450 nm.

PC12 cells [3] = conditions: cited from earlier work
Description: Abnormally precipitated Aβ in amyloid plaques becomes one of the hallmark proteins of brain nerve damage in AD patients, and promotes the deterioration of AD. The accumulation of Aβ protein is caused by the interaction between the hydrophobic center and the C-terminal molecule ([Kapadia et al., 2021]). At present, the development of anti-Aβ aggregation compounds is a promising approach in the treatment of AD, and many clinical trials are ongoing. […] However, these peptides have high specificity and low toxicity, which will make them candidate drugs for peptide inhibitors against Aβ aggregation ([Fosgerau and Hoffmann, 2015]). Peptides designed by computer simulation and applied to Alzheimer’s disease are becoming more and more popular and welcomed by researchers. At present, the peptide inhibitors of Aβ aggregation include LVFF, KLVFF, KLVFF modified peptide (QKL ...

apoptosis caused by Aβ = conditions: ref Hadipour et al., 2020; cited from earlier work
Description: Abnormally precipitated Aβ in amyloid plaques becomes one of the hallmark proteins of brain nerve damage in AD patients, and promotes the deterioration of AD. The accumulation of Aβ protein is caused by the interaction between the hydrophobic center and the C-terminal molecule ([Kapadia et al., 2021]). At present, the development of anti-Aβ aggregation compounds is a promising approach in the treatment of AD, and many clinical trials are ongoing.

Aβ1–42 oligomerization = conditions: ref Takahashi and Mihara, 2008, cited from earlier work
Description: (§1) In recent years, through the emergence of peptides that inhibit the aggregation of Aβ, extensive research has been conducted on peptides for the treatment of Alzheimer’s disease. However, these peptides have high specificity and low toxicity, which will make them candidate drugs for peptide inhibitors against Aβ aggregation ([Fosgerau and Hoffmann, 2015]). Peptides designed by computer simulation and applied to Alzheimer’s disease are becoming more and more popular and welcomed by researchers. At present, the peptide inhibitors of Aβ aggregation include LVFF, KLVFF, KLVFF modified peptide (QKL ...

Aβ aggregation = conditions: cited from earlier work; for Aβ aggregation and toxicity: ref Cheng et al., 2012
Description: as §1

[4] = test system: rat primary cortical neurons; design: method as in Pradhan et al., 2019; conditions: ref Pradhan et al., 2019; cited from earlier work
[5] = peptide 50 μM, Aβ1–42 25 μM, 37°C, 24 h, ThT
[6] = peptide 50 μM, Aβ1–42 25 μM, 37°C, 24 h, n = 5 mean

For `CC(=O)N[C@@H](Cc1ccc(O)cc1)C(=O)N[C@H](C(=O)N[C@@H](CCCNC(=N)N)C(=O)N[C@@H](Cc1c[nH]cn1)C(=O)N[C@@H](Cc1c[nH]cn1)C(=O)N[C@@H](Cc1c[nH]cn1)C(=O)N[C@@H](Cc1ccc(O)cc1)C(=O)N[C@H](C(=O)N[C@@H](CCCNC(=N)N)C(=O)N[C@@H](Cc1c[nH]cn1)C(=O)N[C@@H](Cc1c[nH]cn1)C(=O)N[C@@H](Cc1c[nH]cn1)C(N)=O)C(C)C)C(C)C` [P9] (Ac-YVRHHHYVRHHH-NH2), the Kd (Aβ1–42) was 14 µM, the “Binding ability ranking by KD” value (Aβ1–42) was “the weakest” and the “Binding phase of SPR kinetic curve” value (Aβ1–42) was “the curve rises steadily, and it takes a long time to reach saturation”. For the same compound, the “Dissociation phase of SPR kinetic curve” value (Aβ1–42) was “relatively slow in the dissociation phase”, the “Cell viability at 6.25 μM” value (PC12 cells [1]) was “began to decrease significantly (p < 0.05)” and the “Cell viability at 25, 50, 100 and 200 μM” value (PC12 cells [1]) was “decreased significantly, with extremely significant differences (p < 0.01)”. The “Inhibitory effect on Aβ aggregation” value (Aβ1–42 aggregation; [5]) was “no inhibitory effect on Aβ aggregation” and the “ThT fluorescence intensity vs Aβ group” value (Aβ1–42 aggregation; [6]) was “increased, but the difference is not statistically significant (p > 0.05)”.
In the case of `CC(=O)N[C@@H](Cc1ccc(O)cc1)C(=O)N[C@H](C(=O)N[C@@H](CCCNC(=N)N)C(=O)N[C@@H](Cc1c[nH]cn1)C(=O)N[C@@H](CO)C(=O)N[C@H](C(=O)N[C@@H](Cc1ccc(O)cc1)C(=O)N[C@H](C(=O)N[C@@H](CCCNC(=N)N)C(=O)N[C@@H](Cc1c[nH]cn1)C(=O)N[C@@H](CO)C(=O)N[C@H](C(N)=O)C(C)C)C(C)C)C(C)C)C(C)C` [P11] (Ac-YVRHSVYVRHSV-NH2), the Kd (Aβ1–42) is reported as 20.5 µM, the “Binding phase of SPR kinetic curve” value (Aβ1–42) is reported as “the curve rises steadily, and it takes a long time to reach saturation” and the “Dissociation phase of SPR kinetic curve” value (Aβ1–42) is reported as “relatively slow in the dissociation phase”. For the same compound, the “Cell viability at 3.125 μM” value (PC12 cells [1]) was “cell viability began to decrease significantly at low concentration (3.125 μM) of P11 (p < 0.05)”, the “Inhibitory effect on Aβ aggregation” value (Aβ1–42 aggregation; [5]) was “certain inhibitory ability on Aβ aggregation” and the “ThT fluorescence intensity vs Aβ group” value (Aβ1–42 aggregation; [6]) was “decreased, but the difference was not statistically significant (p > 0.05)”.
For `CC(=O)N[C@@H](Cc1ccc(O)cc1)C(=O)N[C@H](C(=O)N[C@@H](CCCNC(=N)N)C(=O)N[C@@H](Cc1c[nH]cn1)C(=O)N[C@@H](CC(=O)O)C(=O)N[C@@H](CC(C)C)C(=O)N[C@@H](Cc1ccc(O)cc1)C(=O)N[C@H](C(=O)N[C@@H](CCCNC(=N)N)C(=O)N[C@@H](Cc1c[nH]cn1)C(=O)N[C@@H](CC(=O)O)C(=O)N[C@@H](CC(C)C)C(N)=O)C(C)C)C(C)C` [P12] (Ac-YVRHDLYVRHDL-NH2), the Kd (Aβ1–42) was 0.327 µM, the “Binding ability ranking by KD” value (Aβ1–42) was “the strongest” and the “Binding phase of SPR kinetic curve” value (Aβ1–42) was “rises rapidly at the beginning of binding and reaches saturation in a short time”. For the same compound, the “Dissociation phase of SPR kinetic curve” value (Aβ1–42) was “the curve drops rapidly and the dissociation is completed”, the “Cell viability at 6.25 μM” value (PC12 cells [1]) was “significant effect on the viability of PC12 cells at 6.25 μM (p < 0.05)” and the “Inhibitory effect on Aβ aggregation” value (Aβ1–42 aggregation; [5]) was “no inhibitory effect on Aβ aggregation”. For the same compound, the “ThT fluorescence intensity vs Aβ group” value (Aβ1–42 aggregation; [6]) was “increased, but the difference is not statistically significant (p > 0.05)”.
For `CC(=O)N[C@@H](Cc1ccc(O)cc1)C(=O)N[C@H](C(=O)N[C@@H](CCCNC(=N)N)C(=O)N[C@@H](Cc1c[nH]cn1)C(=O)N[C@@H](CC(C)C)C(=O)N[C@@H](CCCCN)C(=O)N[C@@H](Cc1ccc(O)cc1)C(=O)N[C@H](C(=O)N[C@@H](CCCNC(=N)N)C(=O)N[C@@H](Cc1c[nH]cn1)C(=O)N[C@@H](CC(C)C)C(=O)N[C@@H](CCCCN)C(N)=O)C(C)C)C(C)C` [P21] (Ac-YVRHLKYVRHLK-NH2), the Kd (Aβ1–42) was 53.8 µM, the “Binding phase of SPR kinetic curve” value (Aβ1–42) was “rises rapidly at the beginning, but slowly reaches saturation in the following time, and the binding rate is faster” and the “Dissociation phase of SPR kinetic curve” value (Aβ1–42) was “dissociates relatively quickly”. For the same compound, the “Cell viability at 25 μM” value (PC12 cells [1]) was “significantly reduced at 25 μM (p < 0.05)”, the “Toxicity to PC12 cells at 50 μM” value (PC12 cells [1]) was “less toxic to PC12 cells at a concentration of 50 μM” and the “Inhibitory effect on formation of Aβ1–42 aggregates at ratio 1:1” value (Aβ1–42 aggregation; incubated with Aβ1–42 at a ratio of 1:1, ThT, listed as YVRHLKYVRHLK) was “significant inhibitory effect on the formation of Aβ1–42 aggregates when incubated with Aβ1–42 at a ratio of 1:1 (p < 0.05)”. For the same compound, the “Inhibitory effect on Aβ aggregation” value (Aβ1–42 aggregation; [5]) was “strong inhibitory ability on Aβ aggregation; also recorded: good inhibitory effect on the protein aggregation of Aβ1–42”, the “Inhibition of Aβ1–42 aggregation” value (Aβ1–42 aggregation; peptide 50 μM, Aβ1–42 25 μM, 37°C, 24 h, ThT, n = 5 mean, Aβ alone = 100% fluorescence) was 100% and the “ThT fluorescence intensity vs Aβ group” value (Aβ1–42 aggregation; [6]) was “significantly lower than that of the Aβ group (p < 0.05)”. For the same compound, the “Cell viability at ratios above 1:1 (1:2, 1:4)” value (PC12 cells [2]; after ratio 1:1, increasing P21 (1:2, 1:4)) was “cell viability continued to increase” and the “Cell viability at ratio 1:4” value (PC12 cells [2]; ratio 1:4) was “reaching the maximum at 1:4, which was close to the normal level”.
For `CC(C)=CCC[C@@H](C)[C@H]1CC[C@@]2(C)C3=C(CC[C@]12C)[C@@]1(C)CC[C@H](O)C(C)(C)[C@@H]1CC3` [lanosterol], the “Aβ-induced cytotoxicity in PC12 cells” value (PC12 cells [3]; ref Zhou et al., 2019) is given as “reduce the Aβ-induced cytotoxicity in PC12 cells”.
In the case of `CC(C)=CCC/C(C)=C/CC/C(C)=C/CC/C(C)=C/CC1=C(C)C(=O)c2ccccc2C1=O` [vitamin K2], the “Apoptosis caused by Aβ accumulation” value (apoptosis caused by Aβ) is listed as “significantly reduced” and the “Ratio of Bax/Bcl-2” value (apoptosis caused by Aβ) is listed as “decreased”.
In the case of Ac-KQKLLLFLEE-NH2, the “Aβ1–42 oligomerization” value (Aβ1–42 oligomerization; co-assembles with mature Aβ1–42 fibrils) is given as “effectively inhibit Aβ1–42 oligomerization” and the Self-assembly (Aβ1–42 oligomerization) is given as “form amyloid fibrils”.
For “H2N-KLVFF (4-I) -CONH2 [iodinated KLVFF]”, the “Anti-aggregation activity vs other halogenated peptides” value (Aβ aggregation; 10 μM peptide, 10 μM Aβ, 1:1, ref Khalili Samani and Mofid, 2020) is listed as “show the best resistance compared to other halogenated peptides”.
For “KLVFFAE [amyloid β-sheet mimics ; KLVFFAE (Aβ16–22)]”, the “Aβ aggregation and toxicity” value (Aβ aggregation) is listed as “antagonizing Aβ protein aggregation and reducing Aβ toxicity”.
For “LFFFAED [amyloid β-sheet mimics ; LFFFAED (Aβ17–23)]”, the “Aβ aggregation and toxicity” value (Aβ aggregation) is given as “antagonizing Aβ protein aggregation and reducing Aβ toxicity”.
For QKLVFF, the “Formation of Aβ fibers” value (Aβ aggregation; ref Findeis et al., 1999) is listed as “inhibiting the formation of Aβ fibers”.
For Ser-Leu-Lys-Pro [SLKP, tetrapeptide], the Neurite growth [4] is given as “promoted significant neurite growth” and the “Neuroprotection against Aβ-mediated toxicity” value [4] is given as “significant neuroprotection against Aβ-mediated toxicity”.
In the case of “pituitary adenylate cyclase activating polypeptide [PACAP]”, the “Aβ-induced cell death in PC12 cells” value (PC12 cells [3]; ref Onoue et al., 2002) is given as “attenuates Aβ-induced cell death in PC12 cells by increasing cAMP” and the Caspase-3 (PC12 cells [3]; ref Onoue et al., 2002) is given as “inactivation of apoptotic factor (caspase-3)”.
